Reference: ChEMBL document CHEMBL1201862, “PubChem BioAssay data set” (2004)
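In this assay, cells in 96-well plates receive the compound at five concentrations for 48 hours. Endpoints are linearly interpolated between the surrounding concentrations. GI50 = concentration required for 50% inhibition of growth.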 Calls of active or inactive are those of the source. No stated cut-off is given here; in the data, active = GI50 up to about 1.1 µM and inactive = higher.

How the values were obtained:
Assay in all cases: NCI anticancer screen, dose series, 48 h
HOP-92 = tested on: HOP-92
HCC 2998 = tested on: HCC 2998
LOX IMVI = tested on: LOX IMVI
CAKI-1 = tested on: CAKI-1
DU-145 = tested on: DU-145
OVCAR-8 = tested on: OVCAR-8
NCI-H226 = tested on: NCI-H226
SK-MEL-5 = tested on: SK-MEL-5
COLO 205 = tested on: COLO 205
OVCAR-4 = tested on: OVCAR-4
SK-OV-3 = tested on: SK-OV-3
DMS-273 = tested on: DMS-273
SNB-75 = tested on: SNB-75
SN12C = tested on: SN12C
KM12 = tested on: KM12
A498 = tested on: A498
HL-60 = tested on: HL-60
OVCAR-5 = tested on: OVCAR-5
MDA-MB-435 = tested on: MDA-MB-435
SNB-19 = tested on: SNB-19

| SMILES | GI50 (HOP-92) | GI50 (HCC 2998) | GI50 (LOX IMVI) | GI50 (CAKI-1) | GI50 (DU-145) | GI50 (OVCAR-8) | GI50 (NCI-H226) | GI50 (SK-MEL-5) | GI50 (COLO 205) | GI50 (OVCAR-4) | GI50 (SK-OV-3) | GI50 (DMS-273) | GI50 (SNB-75) | GI50 (SN12C) | GI50 (KM12) | GI50 (A498) | GI50 (HL-60) | GI50 (OVCAR-5) | GI50 (MDA-MB-435) | GI50 (SNB-19) |
| --- | --- | --- | --- | --- | --- | --- | --- | --- | --- | --- | --- | --- | --- | --- | --- | --- | --- | --- | --- | --- |
| Cc1c2cc[n+](C)cc2c(C)c2c1sc1ccccc12 | 1.3 µM (inactive) | 1.44 µM (inactive) | 4.06 µM (inactive) | 3.46 µM (inactive) | 1.48 µM (inactive) | 0.33 µM (active) | 0.383 µM (active) | 1.39 µM (inactive) | 1.07 µM (active) | 3.4 µM (inactive) | 1.49 µM (inactive) | 0.853 µM (active) | 0.199 µM (active) | 0.132 µM (active) | 0.457 µM (active) | 1.45 µM (inactive) | 3.33 µM (inactive) | 3.86 µM (inactive) | 2.05 µM (inactive) | 0.205 µM (active) |
| CC(OC1CC(=O)CC2C(=O)C=CC(=O)C12)c1ccccc1 (stereo not drawn) | 1.42 µM (inactive) | 16.1 µM (inactive) | 17.2 µM (inactive) | 16.9 µM (inactive) | – | 15.3 µM (inactive) | 20 µM (inactive) | 18.8 µM (inactive) | 16.9 µM (inactive) | 18.3 µM (inactive) | > 42.2 µM (inactive) | 19.1 µM (inactive) | 25.6 µM (inactive) | 19 µM (inactive) | 16.6 µM (inactive) | 18.1 µM (inactive) | 3.25 µM (inactive) | 17.6 µM (inactive) | – | 28.4 µM (inactive) |
| COC(=O)[C@]12CC=C3O[C@@H]4OC5(CCCCC5)O[C@@H]4[C@H]3C1C(=O)C=CC2=O (stereo partly drawn) | 18.7 µM (inactive) | 17.2 µM (inactive) | 16.8 µM (inactive) | 15.9 µM (inactive) | 21 µM (inactive) | 20.2 µM (inactive) | 18.6 µM (inactive) | 18.6 µM (inactive) | 15.7 µM (inactive) | 17.1 µM (inactive) | 30.7 µM (inactive) | 18.1 µM (inactive) | 18.8 µM (inactive) | 18.4 µM (inactive) | 10.9 µM (inactive) | 17.9 µM (inactive) | 8.91 µM (inactive) | 20.5 µM (inactive) | > 10 µM (inactive) | 38.3 µM (inactive) |
